# Measured values from patent publication US20080280878A1, “Methods and Compositions for Treating Chronic Lymphocytic Leukemia” (priority 2004, published 2008).
# Where “and” joins values, the source holds several entries; their conditions need not be identical. Identical values can stand only once.
# How the values were obtained:
# [1] = Solvent stability of low melt form: slurrying in H2O:EtOH (90:10); assay type: physicochemical; settings: slurry in H2O:EtOH (90:10)
# Description: 17-AAG may be prepared from geldanamycin by reacting with allyamine in dry THF under a nitrogen atmosphere. The crude product may be purified by slurrying in H2O:EtOH (90:10), and the washed crystals obtained have a melting point of 206-212° C. by capillary melting point technique. […] The two 17-AAG products are designated as the low melt form and high melt form.
# MP=147-175° C. ^1H NMR and HPLC are consistent with the desired product.
# [2] = system: ZAP70 in ZAP70+ CLL B cells; assay: ZAP70 protein expression by indirect immunofluorescence and FACS analysis; assay type: cell-based, human; settings: ZAP70+ CLL B cells of one patient, 24 hours at 37° C.
# Description: Levels of ZAP70 protein expression were measured by indirect immunofluorescence of permeabilized cells with specific anti-ZAP70 antibodies and FACS analysis.
# [3] = system: ZAP70 in CLL B cells (CD3−, ZAP70+); assay: Two-color flow cytometry of ZAP70 expression in white blood cells of a ZAP70+ CLL patient: CLL B cells; assay type: cell-based, human; settings: 300 nM, 24 hours at 37° C., untreated 85%
# Description: (§1) The upper right quadrant were normal T-cells (CD3+, ZAP70+) the lower right quadrant were (CD3−, ZAP70+); the upper left quadrant is CD3+, ZAP70−; and the lower left quadrant is CD3−, ZAP70−.
# (§2) (right panel). Levels of ZAP70 protein expression were measured by two color indirect immunofluorescence with specific anti-CD3 antibodies conjugated to phycoerytirin and anti-ZAP70 antibodies conjugated to Alexa-488 dye and analyzed by flow cytometry. CD3 is a specific marker of T cells. […] As shown in the untreated cells (left panel), approximately 5% of the cells were normal T-cells (CD3+, ZAP70+, upper right quadrant) and ˜85% of the cells were ZAP70+ CLL B cells (CD3−, ZAP70+, lower right quadrant). […] This is important because B-CLL patients are chronically immunosuppressed by their disease, so avoidance of effects on normal T-cell function performed by ZAP70 is clearly beneficial.
# (§3) The samples were than prepared for flow cytometry analysis by a method described in Rassebti et al. supra. […] Levels of ZAP70 protein expression were measured by flow cytometry (FACSCalibur, BD Biosciences) and Flow-Jo software, version 2.7.4 (Tree Star).
# [4] = system: ZAP70 in normal T-cells (CD3+, ZAP70+); assay: Two-color flow cytometry of ZAP70 expression in white blood cells of a ZAP70+ CLL patient: normal T-cells; assay type: cell-based, human; settings: 300 nM, 24 hours at 37° C., untreated 4.5%
# Description: as §1, §2, §3
# [5] = cited from earlier work
# ZAP70− CLL B cells = assay: Viability (100%-% apoptotic cells) by DiOC6 and propidium iodide staining; settings: Homo sapiens, B-cell, 48 h, read-out: average % viability
Compound,stability of the low melt form (conversion to high melt form) [1],degradation of ZAP70 [2],% positive cells (ZAP70) after treatment [3],% positive cells (ZAP70) after treatment [4],average % viability (ZAP70+ CLL B cells; 0.1 µM),"time to reach 50% cell mortality (ZAP70+ CLL B cells; 100 nM, 37° C., cells of one ZAP70+ patient)","IC50 (ZAP70+ CLL B cells; read-out: 50% inhibitory concentration (IC50), cell killing, 48 hours at 37° C., cells of one ZAP70+ patient)",maximum tolerated dose (MTD) ([5]; daily 1-hour infusion for 5 days every three weeks),"clearance ([5]; human, in vivo)","terminal half-life ([5]; human, in vivo)","Cmax ([5]; read-out: Plasma Cmax, human, in vivo)",viability at 0.1 µM (ZAP70− CLL B cells)
"C=CCNC1=C2C[C@@H](C)C[C@H](OC)[C@H](O)[C@@H](C)/C=C(\C)[C@H](OC(N)=O)[C@@H](OC)/C=C\C=C(/C)C(=O)NC(=CC1=O)C2=O [low melt form, 17-allylamino-17-demethoxygeldanamycin]",no conversion to the high melt form was observed,–,–,–,–,–,–,–,–,–,–,–
"C=CCNC1=C2CC(C)CC(OC)C(O)C(C)/C=C(\C)C(OC(N)=O)C(OC)/C=C\C=C(/C)C(=O)NC(=CC1=O)C2=O (stereo not drawn) [Compound 17-AAG, 17-allylamino-17-demethoxygeldanamycin]",–,dose-dependently induced degradation of ZAP70,34%,4.2%,45.74+/−3.177%,approximately 48 hours,~80 nM,40 mg/m^2,41.0 ± 13.5 L/h,2.5 ± 0.5 h,1860 nM and 3170 nM,93%
